According to the NIST ThermoML archive (doi:10.1021/je900387e):

Assay: xn = mol fraction of the nth substance listed
Conditions: Liquid, Pycnometric method

CCCCCl [1-chlorobutane] + O=C=O
Conditions	mass density [kg/m3]
313.1 K, 10970 kPa, x1 = 0.0744	828
313.1 K, 11030 kPa, x1 = 0.0243	763
313.1 K, 11220 kPa, x1 = 0.0483	800
313.1 K, 11230 kPa, x1 = 0.0981	855
313.1 K, 11350 kPa, x1 = 0.0744	833
313.1 K, 11500 kPa, x1 = 0.1488	870
313.1 K, 11510 kPa, x1 = 0.0483	806
313.1 K, 11780 kPa, x1 = 0.0744	839
313.1 K, 11810 kPa, x1 = 0.0483	811
313.1 K, 11820 kPa, x1 = 0.0981	862
313.1 K, 12110 kPa, x1 = 0.0483	816
313.1 K, 12170 kPa, x1 = 0.1488	875
313.1 K, 12220 kPa, x1 = 0.0744	844
313.1 K, 12430 kPa, x1 = 0.0744	847
313.1 K, 12440 kPa, x1 = 0.0981	869
313.1 K, 12540 kPa, x1 = 0.1488	878
313.1 K, 12780 kPa, x1 = 0.0981	872
313.1 K, 12890 kPa, x1 = 0.1488	880
313.1 K, 13000 kPa, x1 = 0.0981	874
313.1 K, 13240 kPa, x1 = 0.1488	883
313.1 K, 13660 kPa, x1 = 0.1488	885
313.1 K, 14020 kPa, x1 = 0.1488	888
313.1 K, 14460 kPa, x1 = 0.1488	890
313.1 K, 14830 kPa, x1 = 0.1488	893
314.5 K, 8320 kPa, x1 = 0.0243	495
314.5 K, 8330 kPa, x1 = 0.0243	501
314.5 K, 8360 kPa, x1 = 0.0243	510
314.5 K, 8390 kPa, x1 = 0.0243	522
314.5 K, 8430 kPa, x1 = 0.0243	531
314.5 K, 8460 kPa, x1 = 0.0243	541
314.5 K, 8490 kPa, x1 = 0.0243	552
314.5 K, 8530 kPa, x1 = 0.0243	562
314.5 K, 8590 kPa, x1 = 0.0243	575
314.5 K, 8650 kPa, x1 = 0.0243	588
314.5 K, 8720 kPa, x1 = 0.0243	602
314.5 K, 8820 kPa, x1 = 0.0243	617
314.5 K, 8930 kPa, x1 = 0.0243	632
314.5 K, 9080 kPa, x1 = 0.0243	648
314.5 K, 9270 kPa, x1 = 0.0243	664
314.5 K, 9480 kPa, x1 = 0.0243	680
314.5 K, 9790 kPa, x1 = 0.0243	698
314.5 K, 10150 kPa, x1 = 0.0243	715
314.5 K, 10480 kPa, x1 = 0.0243	729
314.5 K, 10730 kPa, x1 = 0.0243	738
314.5 K, 11030 kPa, x1 = 0.0243	748
314.5 K, 11370 kPa, x1 = 0.0243	758
314.5 K, 11740 kPa, x1 = 0.0243	767
317.9 K, 7340 kPa, x1 = 0.1488	805
317.9 K, 7730 kPa, x1 = 0.0981	761
317.9 K, 7740 kPa, x1 = 0.1488	811
317.9 K, 7900 kPa, x1 = 0.0981	766
317.9 K, 8050 kPa, x1 = 0.0744	713
317.9 K, 8060 kPa, x1 = 0.1488	815
317.9 K, 8090 kPa, x1 = 0.0981	771
317.9 K, 8230 kPa, x1 = 0.0744	720
317.9 K, 8310 kPa, x1 = 0.0981	777
317.9 K, 8360 kPa, x1 = 0.0744	727
317.9 K, 8450 kPa, x1 = 0.1488	820
317.9 K, 8520 kPa, x1 = 0.0744	733
317.9 K, 8530 kPa, x1 = 0.0483	630
317.9 K, 8530 kPa, x1 = 0.0981	782
317.9 K, 8560 kPa, x1 = 0.0243	417
317.9 K, 8590 kPa, x1 = 0.0243	423
317.9 K, 8590 kPa, x1 = 0.0483	636
317.9 K, 8630 kPa, x1 = 0.0243	433
317.9 K, 8670 kPa, x1 = 0.0243	443
317.9 K, 8690 kPa, x1 = 0.0483	646
317.9 K, 8690 kPa, x1 = 0.0744	740
317.9 K, 8720 kPa, x1 = 0.0243	453
317.9 K, 8750 kPa, x1 = 0.0243	464
317.9 K, 8770 kPa, x1 = 0.0981	787
317.9 K, 8790 kPa, x1 = 0.0243	473
317.9 K, 8810 kPa, x1 = 0.0483	656
317.9 K, 8830 kPa, x1 = 0.1488	823
317.9 K, 8850 kPa, x1 = 0.0243	484
317.9 K, 8880 kPa, x1 = 0.0744	746
317.9 K, 8890 kPa, x1 = 0.0243	496
317.9 K, 8940 kPa, x1 = 0.0243	507
317.9 K, 8940 kPa, x1 = 0.0483	667
317.9 K, 8990 kPa, x1 = 0.0243	520
317.9 K, 9050 kPa, x1 = 0.0981	793
317.9 K, 9060 kPa, x1 = 0.0243	534
317.9 K, 9080 kPa, x1 = 0.0483	678
317.9 K, 9110 kPa, x1 = 0.0744	753
317.9 K, 9140 kPa, x1 = 0.0243	549
317.9 K, 9200 kPa, x1 = 0.0483	689
317.9 K, 9230 kPa, x1 = 0.0243	565
317.9 K, 9240 kPa, x1 = 0.1488	828
317.9 K, 9340 kPa, x1 = 0.0243	582
317.9 K, 9350 kPa, x1 = 0.0981	799
317.9 K, 9360 kPa, x1 = 0.0744	760
317.9 K, 9460 kPa, x1 = 0.0243	599
317.9 K, 9490 kPa, x1 = 0.0483	701
317.9 K, 9580 kPa, x1 = 0.0243	615
317.9 K, 9600 kPa, x1 = 0.0744	766
317.9 K, 9650 kPa, x1 = 0.0981	804
317.9 K, 9660 kPa, x1 = 0.1488	832
317.9 K, 9740 kPa, x1 = 0.0243	630
317.9 K, 9770 kPa, x1 = 0.0483	713
317.9 K, 9840 kPa, x1 = 0.0243	639
317.9 K, 9890 kPa, x1 = 0.0744	773
317.9 K, 9950 kPa, x1 = 0.0243	647
317.9 K, 10010 kPa, x1 = 0.0981	810
317.9 K, 10030 kPa, x1 = 0.0243	654
317.9 K, 10090 kPa, x1 = 0.0483	725
317.9 K, 10090 kPa, x1 = 0.1488	836
317.9 K, 10220 kPa, x1 = 0.0744	780
317.9 K, 10350 kPa, x1 = 0.0483	734
317.9 K, 10350 kPa, x1 = 0.0981	815
317.9 K, 10560 kPa, x1 = 0.0744	787
317.9 K, 10580 kPa, x1 = 0.1488	841
317.9 K, 10650 kPa, x1 = 0.0483	742
317.9 K, 10750 kPa, x1 = 0.0981	822
317.9 K, 10940 kPa, x1 = 0.0744	794
317.9 K, 10970 kPa, x1 = 0.0483	752
317.9 K, 11090 kPa, x1 = 0.1488	847
317.9 K, 11180 kPa, x1 = 0.0981	827
317.9 K, 11340 kPa, x1 = 0.0483	761
317.9 K, 11370 kPa, x1 = 0.0744	802
317.9 K, 11620 kPa, x1 = 0.1488	851
317.9 K, 11670 kPa, x1 = 0.0981	834
317.9 K, 11740 kPa, x1 = 0.0483	770
317.9 K, 11860 kPa, x1 = 0.0744	810
317.9 K, 11940 kPa, x1 = 0.1488	853
317.9 K, 12140 kPa, x1 = 0.0981	839
317.9 K, 12220 kPa, x1 = 0.0483	780
317.9 K, 12240 kPa, x1 = 0.1488	856
317.9 K, 12370 kPa, x1 = 0.0744	817
317.9 K, 12520 kPa, x1 = 0.1488	858
317.9 K, 12690 kPa, x1 = 0.0981	846
317.9 K, 12740 kPa, x1 = 0.0483	790
317.9 K, 12850 kPa, x1 = 0.1488	861
317.9 K, 12930 kPa, x1 = 0.0744	825
317.9 K, 13140 kPa, x1 = 0.1488	863
317.9 K, 13250 kPa, x1 = 0.0981	852
317.9 K, 13320 kPa, x1 = 0.0483	800
317.9 K, 13440 kPa, x1 = 0.1488	865
317.9 K, 13510 kPa, x1 = 0.0744	833
317.9 K, 13620 kPa, x1 = 0.0483	805
317.9 K, 13800 kPa, x1 = 0.1488	868
317.9 K, 13830 kPa, x1 = 0.0981	859
317.9 K, 13950 kPa, x1 = 0.0483	811
317.9 K, 14180 kPa, x1 = 0.0744	841
317.9 K, 14190 kPa, x1 = 0.1488	871
317.9 K, 14300 kPa, x1 = 0.0483	816
317.9 K, 14480 kPa, x1 = 0.1488	873
317.9 K, 14530 kPa, x1 = 0.0981	865
317.9 K, 14860 kPa, x1 = 0.1488	875
317.9 K, 14910 kPa, x1 = 0.0744	849
317.9 K, 15220 kPa, x1 = 0.0981	872
322.7 K, 7900 kPa, x1 = 0.1488	782
322.7 K, 8140 kPa, x1 = 0.1488	786
322.7 K, 8330 kPa, x1 = 0.0981	728
322.7 K, 8380 kPa, x1 = 0.1488	789
322.7 K, 8510 kPa, x1 = 0.0981	734
322.7 K, 8620 kPa, x1 = 0.0243	328
322.7 K, 8620 kPa, x1 = 0.0981	739
322.7 K, 8630 kPa, x1 = 0.0744	669
322.7 K, 8670 kPa, x1 = 0.1488	794
322.7 K, 8690 kPa, x1 = 0.0243	336
322.7 K, 8740 kPa, x1 = 0.0744	675
322.7 K, 8750 kPa, x1 = 0.0243	343
322.7 K, 8780 kPa, x1 = 0.0981	744
322.7 K, 8810 kPa, x1 = 0.0243	351
322.7 K, 8860 kPa, x1 = 0.0243	360
322.7 K, 8860 kPa, x1 = 0.0744	683
322.7 K, 8920 kPa, x1 = 0.0243	368
322.7 K, 8940 kPa, x1 = 0.0981	749
322.7 K, 8970 kPa, x1 = 0.1488	798
